Measurements from patent US5360803A, “Composition and method for treating cancer” (Dan Farber Cancer Institute, priority 1992, dated 1994).
Like-named read-outs stand apart in the source and are kept apart here.

Columns and labels:
human melanoma LOX = experiment: survival of nude mice implanted with human melanoma LOX; format: in vivo, male athymic Swiss nu/nu mouse (human tumor); details: Mus musculus, ip, 24 h, read-out: T/C; for response vs control in vivo at 3 mg/kg: 3 mg/kg i.p. on day 1, 4, 8, 10, 12
Procedure: LOX, a human melanoma cell line, grown subcutaneously in nude mice was excised, trypsinized to yield a single cell suspension using a metal grid with a […] mesh. […] Five million viable trypan blue negative cells made up in 0.1 ml of Dulbecco modified Eagle medium (DMFE) were injected into the peritoneal cavity of a male athymic Swiss nu/nu mouse. The control group and each treatment group consisted of 5 to 10 mice. Treatment was commenced the following day by intraperitoneal injection.
Ten control mice received 0.25 ml of 2% dextrose on these days the treated groups were injected with the compounds of this invention. […] T/C is the ratio, expressed as a percentage of the mean survival age of the treated group to the mean survival age of the untreated control group.

MCF-7 cells = experiment: colony assay of Example 1 with human breast carcinoma MCF-7 cell line; format: cell-based; details: for Selectivity: CV-1/MCF-7; for IC50 / MCF-7(IC50): Table VI, human breast carcinoma, 24 hours treatment
Description: (§1) The control received culture media only.

CV-1 cells = experiment: selective killing assay, colony number reduced to 50% of control, normal monkey kidney epithelial cell line CV-1; format: cell-based; details: 24 hours treatment; for IC50: Primates
Description: as §1

LOX cells = experiment: colony assay of Example 1 with human melanoma LOX cell line; format: cell-based; details: for Selectivity: CV-1/LOX; for IC50: LOX; for IC50 / LOX(IC50): Table V, human melanoma, 24 hours treatment;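 as to all read-outs here: colony formation assay with 24 h exposure at 37 °C, then 7 to 10 days of regrowth, crystal violet staining of colonies, control wells given medium alone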
Procedure: (§2) Human colon carcinoma cell line CX-1 or normal monkey kidney epithelial cell line CV-1 was chosen as representatives of cancer cells and normal cells, respectively. […] CX-1 cells (2,000 cells/well) and CV-1 cells (1,000 cells/well) were plated in 24-well plastic culture plates. […] The control received culture media only. Cells were treated with compounds of General Formulas (I) to (V) at 37° C. for 24 hours. After rinsing with fresh culture medium three times, the cells were further incubated at 37° C. for 7 to 10 days. Cell colonies were fixed and stained with 2% crystal violet in 70% ethanol for 10 minutes and rinsed in water. […] The selectivity is defined as the ratio of IC50 for CV-1 and IC50 for CX-1.

CX-1 cells = experiment: selective killing assay, colony number reduced to 50% of control, human colon carcinoma cell line CX-1; format: cell-based; details: for Selectivity (ratio of IC50 for CV-1 and IC50 for CX-1): CV-1/CX-1;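 as to all read-outs here: colonies stained with crystal violet and counted, control cells given medium alone, exposure at 37 °C, normal monkey kidney epithelial CV-1 cells as the non-cancer comparator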
CRL 1420 cells = experiment: colony assay of Example 1 with human pancreatic carcinoma CRL 1420 cell line; format: cell-based; details: for Selectivity: CV-1/CRL-1420; for CRL-1420(IC50) / IC50: Table VII, human pancreatic carcinoma, 24 hours treatment; for IC50: Homo sapiens, 24 h;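 as to all read-outs here: colony formation assay, cells exposed for 24 h then regrown 7 to 10 days without compound, colonies stained with crystal violet, control given medium alone, normal reference CV-1 monkey kidney epithelial cells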
Procedure: as §2

EJ cells = experiment: colony assay of Example 1 with human bladder carcinoma EJ cell line; format: cell-based; details: for Selectivity: CV-1/EJ; for IC50: EJ;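 as to all read-outs here: colony formation assay with 24 h compound exposure at 37 °C, then 7–10 days drug-free regrowth, colonies stained with crystal violet, controls given medium alone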
Procedure: as §2

[1] = CV-1, Table III, normal monkey kidney epithelial cells, colony count after 7 to 10 days
[2] = Homo sapiens, 24 h, Table IV, human bladder carcinoma, 24 hours treatment
[3] = Homo sapiens, CX-1, Table III, human colon carcinoma, 24 hours treatment, colony count after 7 to 10 days
[4] = Table IV, human bladder carcinoma, 24 hours treatment
[5] = 5 mg/kg i.p. on day 1, 3, 4, 6, 8, 10, 13

Row | Compound | Selectivity (MCF-7 cells) | IC50 (MCF-7 cells; Homo sapiens, MCF7, 24 h) [µg/mL] | IC50 (CV-1 cells; CV-1, 24 h, Table V) [µg/mL] | IC50 (CV-1 cells; CV-1, 24 h, Table VI) [µg/mL] | IC50 (CV-1 cells; [1]) [µg/mL] | Selectivity (LOX cells) | IC50 (LOX cells; Homo sapiens, 24 h) [µg/mL] | Selectivity (ratio of IC50 for CV-1 and IC50 for CX-1) (CX-1 cells) | Selectivity (CRL 1420 cells) | Selectivity (EJ cells) | IC50 (EJ cells; [2]) [µg/mL] | IC50 (CV-1 cells; CV-1, 24 h, Table VII) [µg/mL] | IC50 (CRL 1420 cells) [µg/mL] | IC50 (CX-1 cells; [3]) [µg/mL] | IC50 (CV-1 cells; CV-1, 24 h, Table IV) [µg/mL] | other results
1 | CCn1c(=Cc2sc3ccc4ccccc4c3[n+]2CC)sc(=C2SCCN2C)c1=O [Compound 224] | 200 | 0.1 | 20 | 20 | 20 | 200 | 0.1 | 250 | – | – | – | – | – | – | – | response vs control in vivo at 3 mg/kg (human melanoma LOX): 161%; IC50 (CX-1 cells; CX-1, Table III, human colon carcinoma, 24 hours treatment, colony count after 7 to 10 days): 0.08 µg/mL
2 | CCn1c(=Cc2sc3ccccc3[n+]2CC)sc(=C2Sc3ccccc3N2C)c1=O [Compound 2] | 111 | – | 10 | 10 | 10 | 667 | – | 333 | 1000 | 200 | 0.02 | 10 | – | – | – | response vs control in vivo at 5 mg/kg (human melanoma LOX; 5 mg/kg i.p. on day 1, 4, 8, 11, 15): 163%; CRL-1420(IC50) (CRL 1420 cells): 0.01 µg/mL; MCF-7(IC50) (MCF-7 cells): 0.09 µg/mL; CV-1 (IC50) (CV-1 cells; Table IV): 4 µg/mL; LOX(IC50) (LOX cells): 0.015 µg/mL; IC50 (CX-1 cells; Homo sapiens, CX-1): 0.03 µg/mL
3 | CCn1c(=CC2=[N+](CC)CCS2)sc(=C2Oc3ccc4ccccc4c3N2C)c1=O [Compound 215] | 200 | 0.1 | 20 | 20 | 10 | 500 | 0.04 | 200 | 222 | – | – | 20 | 0.09 | 0.05 | – | response vs control in vivo at 3 mg/kg (human melanoma LOX): 167%
4 | CCn1c(=Cc2sc3c4ccccc4ccc3[n+]2CC)sc(=C2Sc3ccccc3N2C)c1=O [Compound 31] | 250 | 0.04 | 10 | 10 | 10 | 250 | 0.04 | 333 | – | 500 | 0.02 | – | – | 0.03 | 10 | response vs control in vivo at 5 mg/kg (human melanoma LOX; 5 mg/kg i.p. on day 1, 4, 8, 11): 153%
5 | CCn1c(=CC2=[N+](CC)CCS2)sc(=C2Sc3ccccc3N2C)c1=O [Compound 335] | 100 | – | – | – | – | 667 | – | 200 | 500 | 200 | – | – | – | – | – | response vs control in vivo at 5 mg/kg (human melanoma LOX; 5 mg/kg i.p. on day 1, 5, 8, 11, 14): 189%; CRL-1420(IC50) (CRL 1420 cells): 0.04 µg/mL; EJ (IC50) (EJ cells; [4]): 0.1 µg/mL; MCF-7(IC50) (MCF-7 cells): 0.2 µg/mL; CV-1 (IC50) (CV-1 cells; Table III, normal monkey kidney epithelial cells, colony count after 7 to 10 days): 26 µg/mL; CV-1 (IC50) (CV-1 cells; Table IV): 20 µg/mL; CV-1 (IC50) (CV-1 cells; Table V): 20 µg/mL; CV-1 (IC50) (CV-1 cells; Table VI): 20 µg/mL; CV-1 (IC50) (CV-1 cells; Table VII): 20 µg/mL; LOX(IC50) (LOX cells): 0.03 µg/mL; CX-1 (IC50) (CX-1 cells; Table III, human colon carcinoma, 24 hours treatment, colony count after 7 to 10 days): 0.1 µg/mL
6 | CCn1c(=Cc2oc3ccc4ccccc4c3[n+]2CC)sc(=C2Oc3c(ccc4ccccc34)N2C)c1=O [Compound 253] | 200 | 0.03 | 6 | 6 | 6 | 1200 | 0.005 | 120 | 200 | 300 | 0.02 | 6 | 0.03 | 0.05 | 6 | –
7 | CCn1c(=Cc2sc3ccccc3[n+]2CC)sc(=C2Sc3ccccc3N2C)c1=O [Compound 336] | 100 | – | – | – | – | 4000 | – | – | 667 | 667 | – | – | – | – | – | response vs control in vivo at 5 mg/kg (human melanoma LOX; [5]): 188%; CRL-1420(IC50) (CRL 1420 cells): 0.03 µg/mL; IC50 (EJ cells; [4]): 0.03 µg/mL; IC50 (MCF-7 cells; MCF7): 0.2 µg/mL; IC50 (CV-1 cells; CV-1, Table IV): 20 µg/mL; IC50 (CV-1 cells; CV-1, Table V): 20 µg/mL; IC50 (LOX cells): 0.005 µg/mL
8 | CCn1c(=Cc2cc[n+](CC)c3ccccc23)sc(=C2C=Cc3ccccc3N2C)c1=O [Compound 232] | 150 | 0.04 | 6 | 6 | – | 300 | 0.02 | – | 200 | 120 | 0.05 | 6 | 0.03 | – | 6 | response vs control in vivo at 3 mg/kg (human melanoma LOX): > 270%
9 | CCn1c(=Cc2oc3ccc4ccccc4c3[n+]2CC)sc(=C2Sc3ccccc3N2C)c1=O [Compound 337] | 160 | 0.05 | 8 | 8 | 8 | 800 | 0.01 | 100 | – | 267 | 0.03 | – | – | 0.08 | 8 | response vs control in vivo at 5 mg/kg (human melanoma LOX; [5]): 137%
10 | CCn1c(=CC2=[N+](CC)CCS2)sc(=C2SC3=C(CCCC3)N2C)c1=O [Compound 340] | 200 | 0.1 | – | 20 | – | – | – | – | – | – | – | – | – | – | – | response vs control in vivo at 8 mg/kg (human melanoma LOX; 8 mg/kg i.p. on day 1, 3, 8, 13): 194%
11 | CCn1c(=C2CC[n+]3c2sc2ccccc23)sc(=C2Sc3ccccc3N2C)c1=O [Compound 29] | 200 | 0.05 | 10 | 10 | 10 | 333 | 0.03 | 333 | 500 | 200 | 0.05 | 10 | 0.02 | 0.03 | 10 | –
